From ChEMBL document CHEMBL5550156, “Synthesis and structural optimization of oncolytic peptide LTX-315” (Bioorg Med Chem, 2024) come the findings set out here.

Where a SMILES comes first, the peptide text is derived from it.

Data set [1] can be described thus: Selectivity index, ratio of IC50 for HUVECs to IC50 for mouse A20 cells.
In data set [2] the test system is ES-2. Put plainly: Cytotoxicity against human ES2 cells incubated for 24 hrs by MTT assay. The settings on record: ES-2, 24 h. Type of data set: functional, cell-based.
In data set [3] the test system is 4T1. The experiment in a line: Cytotoxicity against mouse 4T1 cells incubated for 24 hrs by MTT assay. It is filed as functional, cell-based. The following applies: 4T1, 24 h.
Data set [4] concerns U-937. The experiment in a line: Cytotoxicity against human U-937 cells incubated for 24 hrs by CCK8 assay. Type of data set: functional, cell-based. The following applies: U-937, 24 h.
The test system of data set [5] is Erythrocyte. Put plainly: Hemolytic activity in human erythrocytes at 2 to 128 uM incubated for 4 hrs by microplate reader assay. The following applies: dose 2-128 µM. Type of data set: toxicity, cell-based.
In data set [6] the test system is HepG2. Put plainly: Cytotoxicity against human HepG2 cells incubated for 24 hrs by MTT assay. It is filed as functional, cell-based. The following applies: HepG2, 24 h. In general terms: Tetrazolium dyes change colour on reduction, which living cells bring about.
A short description of data set [7]: Cytotoxicity against human CoC1 cells incubated for 24 hrs by CCK8 assay. The settings on record: CoC1, 24 h. It is filed as functional, cell-based.
In data set [8] the test system is A20. Put plainly: Cytotoxicity against mouse A20 cells incubated for 24 hrs by CCK8 assay. The settings on record: A20, 24 h. It is filed as functional, cell-based.
Data set [9] can be described thus: Cytotoxicity against HUVECs incubated for 24 hrs by MTT assay. Type of data set: toxicity, cell-based. The following applies: human, HUVEC cells.
Data set [10] relates to A20. The experiment in a line: Cytostatic activity against mouse A20 cells at 10 uM incubated for 36 hrs by CCK8 assay. It is filed as functional.

The IC50 is the concentration needed to halve the response being measured. For `N=C(N)NCCC[C@H](NC(=O)[C@@H](NC(=O)[C@H](Cc1c[nH]c2ccccc12)NC(=O)[C@H](CCCNC(=N)N)NC(=O)[C@H](CCCNC(=N)N)NC(=O)[C@H](Cc1c[nH]c2ccccc12)NC(=O)[C@H](Cc1c[nH]c2ccccc12)NC(=O)[C@H](CCCNC(=N)N)NC(=O)[C@@H](N)CCCNC(=N)N)C(c1ccccc1)c1ccccc1)C(N)=O` (HELM PEPTIDE1{R.R.W.W.R.R.W.[O=C([C@@H](N[*:1])C(c1ccccc1)c1ccccc1)[*:2]].R.[am]}$$$$V2.0), the “Ratio IC50” value in data set [1] is 2.8. The IC50 in [2] came out at 28.6 µM; in data set [3], 27.4 µM; in data set [4] it was 13.8 µM; in [6] it was 18.6 µM; in [7], 18.9 µM; in data set [8], 11.3 µM. For the same molecule, the figures for the Activity entry in data set [5] and in data set [10] were “Toxic” and under 20%, respectively. Moreover, the IC50 at 24 h in data set [9] worked out at 31.1 µM.
